# Data reported in patent publication US20250122567A1, “Methods of Identifying and Treating Subjects having Inflammatory Subphenotypes of Asthma” (National Jewish Health, priority 2015, published 2025).
# What was measured:
# HRV-16 = HRV-16 infection of ALI differentiated airway epithelial cells treated with IL-13; type: cell-based, human rhinovirus-16; conditions: IL-13 10 ng/ml for final 10 days of differentiation, BECs and NECs, vs vehicle
# DPP4 = experiment: IL-13 treatment of ALI differentiated bronchial epithelial cells, DPP4 expression; type: cell-based; conditions: IL-13 10 ng/ml, 24 hours
# Protocol: FIGS. 12A and 12B show pairs of Air-liquid interface (ALI) differentiated bronchial epithelial cells (BEC) from 5 donors that were treated for 24 hours with IL-13 cytokine (10 ng/ml) and vehicle control. (FIG. 12A) RNA was extracted from all control and IL-13 treated ALI membranes. RNA was used in 5′ nuclease qPCR assays to determine DPP4 and housekeeping gene expression. Normalized DPP4 expression for the control and IL-13 treated cultures of a subject are connected by a line. Well-differential nasal airway epithelial cultures were generated and tested for a single donor denoted by red points. (FIG. 12B) Western blot of cell lysates for DPP4 in control and IL-13 treated BECs from all five donors.
substance,measurement,setting,value
IL-13: Th2 cytokine used to treat airway epithelial cell cultures (10 ng/ml),HRV-16 infection (mRNA) of ALI differentiated airway epithelial cells,HRV-16,decreases HRV-16 infection
same,DPP4 gene expression in airway epithelial cells,"DPP4; ALI differentiated BEC from 5 donors, qPCR, vs vehicle control",strongly induced
same,DPP4 protein expression in airway epithelial cells,"DPP4; BEC cell lysates from five donors, Western blot, vs control",strongly induced
